We go through three compounds from publication PMC9206686, “Expression, characterization, and activity optimization of a novel cellulase from the thermophilic bacteria Cohnella sp. A01” (Scientific Reports, 2022).

This assay concerns the target T1, CelC307 (Cohnella sp. A01, UniProt A0A6C0R5L1).
T1 construct: Ni-NTA or heat-shock purified; GH5 domain predicted 77-362; primers imply N-terminus MGDLERL, C-terminus HAGAR before tag
T1 sequence (A0A6C0R5L1 1-491): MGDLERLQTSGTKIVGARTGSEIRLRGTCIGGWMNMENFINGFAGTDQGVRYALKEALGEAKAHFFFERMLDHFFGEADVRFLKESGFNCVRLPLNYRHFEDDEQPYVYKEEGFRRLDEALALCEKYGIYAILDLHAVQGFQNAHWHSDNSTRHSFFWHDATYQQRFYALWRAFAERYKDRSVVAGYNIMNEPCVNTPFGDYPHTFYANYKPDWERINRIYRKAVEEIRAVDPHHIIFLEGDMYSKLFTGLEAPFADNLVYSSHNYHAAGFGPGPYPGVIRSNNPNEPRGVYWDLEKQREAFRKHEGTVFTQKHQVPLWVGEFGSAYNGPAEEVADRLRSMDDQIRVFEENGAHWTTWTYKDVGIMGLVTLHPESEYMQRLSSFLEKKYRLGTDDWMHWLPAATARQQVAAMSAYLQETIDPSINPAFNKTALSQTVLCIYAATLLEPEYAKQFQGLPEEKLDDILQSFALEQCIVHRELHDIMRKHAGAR
Description: DNS reducing-sugar assay, Lineweaver-Burk. The format is biochemical. Conditions: inhibitor, CMC substrate; […] inhibitor, pH […] °C.

As to `OC[C@H]1O[C@@H](O[C@H]2[C@H](O)[C@@H](O)C(O)O[C@@H]2CO)[C@H](O)[C@@H](O)[C@H]1O` (stereo partly drawn) [lactose], under “mixed-type”, the inhibition mode result is “the fructose and lactose exhibited the mixed-type inhibition mode”.

For the compound `OCC1(O)OC[C@@H](O)[C@@H](O)[C@@H]1O` (stereo partly drawn) [fructose], the inhibition mode entry (mixed-type) was “the fructose and lactose exhibited the mixed-type inhibition mode”. Take `OC[C@H]1O[C@H](O[C@H]2[C@H](O)[C@@H](O)C(O)O[C@@H]2CO)[C@H](O)[C@@H](O)[C@@H]1O` (stereo partly drawn) [maltose]: where the note is “non-competitive”, the inhibition mode entry is “the inhibition mode of maltose was non-competitive because the Vmax was reduced”.
